Data on 21 compounds can be found in ChEMBL document CHEMBL4417631, “Oral peptide inhibitors of interleukin-23 receptor and their use to treat inflammatory bowel diseases” (2017).

*1 amine or outer side, *2 acyl side, *3 side chain or, on linkers, in order; H or OH if unused. Where a SMILES comes first, the peptide text is derived from it. Bridges are numbered along the chain shown (N, C = ends). [ ]: non-standard residue; d: D form. The star is where a group is joined. Abu(4-yl) = O=C([C@H](CC[*:3])N[*:1])[*:2]; AEF = NCCOc1ccc(C[C@H](N)C(=O)O)cc1; αMeK = C[C@](N)(CCCCN)C(=O)O; Dap = NC[C@H](N)C(=O)O; OBn = c1ccc(CO*)cc1

For the assay, the target named is T1, Interleukin-23 receptor (Homo sapiens, UniProt Q5VWK5).
T1 sequence (Q5VWK5 whole entry): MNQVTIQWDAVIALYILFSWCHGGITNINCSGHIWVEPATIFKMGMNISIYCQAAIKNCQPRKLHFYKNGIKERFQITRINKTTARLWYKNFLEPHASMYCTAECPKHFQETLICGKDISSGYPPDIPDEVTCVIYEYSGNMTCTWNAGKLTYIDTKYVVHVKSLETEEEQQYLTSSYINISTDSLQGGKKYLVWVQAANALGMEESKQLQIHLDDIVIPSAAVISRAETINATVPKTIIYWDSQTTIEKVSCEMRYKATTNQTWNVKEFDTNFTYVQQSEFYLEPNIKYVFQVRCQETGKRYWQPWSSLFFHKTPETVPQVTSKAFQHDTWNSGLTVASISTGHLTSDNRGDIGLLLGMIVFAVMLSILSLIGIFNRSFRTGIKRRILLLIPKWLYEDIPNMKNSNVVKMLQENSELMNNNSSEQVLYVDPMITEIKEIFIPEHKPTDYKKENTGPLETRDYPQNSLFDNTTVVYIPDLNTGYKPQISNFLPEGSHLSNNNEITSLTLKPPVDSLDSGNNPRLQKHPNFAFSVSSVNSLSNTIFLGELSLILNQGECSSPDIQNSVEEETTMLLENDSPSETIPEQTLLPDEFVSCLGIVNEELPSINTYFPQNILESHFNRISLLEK
As to the kind of experiment: Inhibition of interleukin-23 binding to human interleukin-23 receptor incubated for 2 hrs by competitive binding ELISA. For orientation: In an ELISA, binding on a coated surface is turned into a signal by an enzyme label.
By IC50 is commonly meant the midpoint of a concentration-inhibition curve. Read a high IC50 as weaker potency in that assay. Take `CC(=O)N[C@@H](CS)C(=O)N[C@@H](C)C(=O)N[C@H](C(=O)N[C@@H](Cc1c[nH]c2ccccc12)C(=O)N[C@H](C(=O)N[C@@H](CS)C(=O)N[C@@H](Cc1ccc(O)cc1)C(=O)N[C@@H](Cc1c[nH]c2ccccc12)C(=O)N[C@@H](Cc1cnc[nH]1)C(=O)N[C@H](C(=O)N[C@@H](Cc1ccccc1)C(=O)NCC(N)=O)[C@@H](C)O)C(C)C)[C@@H](C)O`: the IC50 was greater than 1 µM.
For the compound `CC(=O)N[C@@H](CS)C(=O)N[C@@H](CCC(N)=O)C(=O)N[C@H](C(=O)N[C@@H](Cc1c[nH]c2ccccc12)C(=O)N[C@@H](CCC(N)=O)C(=O)N[C@@H](CS)C(=O)N[C@H](Cc1ccc(O)cc1)C(=O)N[C@@H](Cc1c[nH]c2ccccc12)C(=O)N[C@@H](CCC(C)C)C(=O)N[C@@H](CCC(=O)O)C(=O)N[C@@H](CC(N)=O)C(=O)NCC(N)=O)[C@@H](C)O`, the half-inhibitory concentration (IC50) is greater than 30 µM.
On to `CC(C)[C@H](NC(=O)[C@H](Cc1c[nH]c2ccccc12)N(C)C(=O)[C@H](CC(=O)O)NC(=O)[C@H](C)NC(=O)[C@@H](N)CS)C(=O)N[C@@H](CS)C(=O)N[C@@H](Cc1ccc(O)cc1)C(=O)N[C@@H](Cc1cccc2ccccc12)C(=O)N[C@@H](Cc1cnc[nH]1)C(=O)N[C@H](C(=O)N[C@@H](Cc1ccccc1)C(=O)O)[C@@H](C)O`, for which the IC50 is greater than 1 µM.
`CC(=O)NCCCC[C@H](NC(=O)[C@](C)(CCCCN)NC(=O)[C@H](Cc1ccc2ccccc2c1)NC(=O)[C@H](Cc1ccc(Cl)c(Cl)c1)NC(=O)[C@@H](NC(=O)[C@H](CCC(N)=O)NC(=O)[C@H](Cc1c[nH]c2ccccc12)NC(=O)[C@@H](NC(=O)[C@H](CCC(N)=O)NC(=O)[C@@H](NC(C)=O)C(C)(C)S)[C@@H](C)O)C(C)(C)S)C(=O)N[C@@H](CC(N)=O)C(=O)NCC(N)=O` returned an IC50 of 0.1 to 1 µM.
In the case of `CC(=O)N[C@@H](CS)C(=O)N[C@@H](C)C(=O)N[C@@H](CC(=O)O)C(=O)N[C@@H](Cc1c[nH]c2ccccc12)C(=O)N[C@H](C(=O)N[C@@H](CS)C(=O)N[C@@H](Cc1ccc(O)cc1)C(=O)N[C@@H](Cc1c[nH]c2ccccc12)C(=O)N[C@@H](CCCN)C(=O)N[C@H](C(=O)N[C@@H](Cc1ccccc1)C(=O)NCC(=O)NCCC(=O)N[C@H](CCCCN)C(N)=O)C1CCCCC1)C(C)C`, the half-inhibitory concentration (IC50) was greater than 30 µM.
In the case of `CC(C)[C@H](NC(=O)[C@H](Cc1c[nH]c2ccccc12)NC(=O)[C@H](CC(=O)O)NC(=O)[C@H](C)NC(=O)[C@@H](N)CS)C(=O)N[C@@H](CS)C(=O)N[C@@H](Cc1ccc(O)cc1)C(=O)N[C@@H](Cc1cccc2ccccc12)C(=O)N[C@@H](Cc1cnc[nH]1)C(=O)N[C@H](C(=O)N[C@@H](Cc1ccccc1)C(=O)O)[C@@H](C)O`, the half-maximal inhibitory concentration (IC50) is greater than 1 µM.
The compound `CC(=O)NCCCC[C@H](NC(=O)[C@](C)(CCCCN)NC(=O)[C@H](Cc1ccc2ccccc2c1)NC(=O)[C@H](Cc1ccc(-c2ccccc2)cc1)NC(=O)[C@@H](NC(=O)[C@H](CCC(N)=O)NC(=O)[C@H](Cc1c[nH]c2ccccc12)NC(=O)[C@@H](NC(=O)[C@H](CCC(N)=O)NC(=O)[C@@H](NC(C)=O)C(C)(C)S)[C@@H](C)O)C(C)(C)S)C(=O)N[C@@H](CC(N)=O)C(=O)NCC(N)=O` gave an IC50 greater than 10 µM.
As for `CC(=O)N[C@@H](CS)C(=O)N[C@@H](CCC(N)=O)C(=O)N[C@H](C(=O)N[C@@H](Cc1c[nH]c2ccccc12)C(=O)N[C@@H](CCC(N)=O)C(=O)N[C@@H](CS)C(=O)N[C@@H](Cc1ccc(O)cc1)C(=O)N[C@@](C)(Cc1c[nH]c2ccccc12)C(=O)N[C@@H](CCCNC(=N)N)C(=O)N[C@H](C(=O)N[C@@H](CC(N)=O)C(=O)NCC(=O)NCCC(=O)N[C@H](CCCCN)C(N)=O)C(C)C)[C@@H](C)O`, the half-inhibitory concentration (IC50) was determined as 6 µM.
Compound `CC(=O)NCCCC[C@H](NC(=O)[C@](C)(CCCCN)NC(=O)[C@H](CCC(=O)OCc1ccccc1)NC(=O)[C@H](Cc1ccc(OCCN)cc1)NC(=O)[C@@H]1CSCC[C@H](NC(C)=O)C(=O)N[C@@H](CN)C(=O)N[C@@H]([C@@H](C)O)C(=O)N[C@@H](Cc2c[nH]c3ccccc23)C(=O)N[C@@H](CCC(N)=O)C(=O)N1)C(=O)N[C@@H](CC(N)=O)C(=O)NCC(N)=O` (Ac-[Abu(4-yl)][Dap]TWQC[AEF]E(OBn)[αMeK]K(Ac)NG-NH2; thioether 1-6) gave a half-inhibitory concentration (IC50) greater than 3 µM.
The result for `CSC[C@H](NC(=O)[C@H](CCC(N)=O)NC(=O)[C@H](Cc1c[nH]c2ccccc12)NC(=O)[C@@H](NC(=O)[C@H](CCCNC(=N)N)NC(=O)[C@H](C)NC(C)=O)[C@@H](C)O)C(=O)N[C@@H](Cc1ccc(O)cc1)C(=O)N[C@@H](Cc1c[nH]c2ccccc12)C(=O)N[C@@H](CCCNC(=N)N)C(=O)N[C@@H](CCCCN)C(=O)N[C@@H](Cc1ccccc1)C(=O)NCC(=O)NCCOCC(=O)N[C@H](CCCCN)C(N)=O` reads 7.57 µM; that for `CC(C)[C@H](NC(=O)[C@H](Cc1c[nH]c2ccccc12)NC(=O)[C@H](CC(=O)O)NC(=O)[C@H](C)NC(=O)[C@H](CS)NC(=O)[C@H](CO)NC(=O)CCN)C(=O)N[C@@H](CS)C(=O)N[C@@H](Cc1ccc(O)cc1)C(=O)N[C@@H](Cc1c[nH]c2ccccc12)C(=O)N[C@@H](Cc1cnc[nH]1)C(=O)N[C@H](C(=O)N[C@@H](Cc1ccccc1)C(=O)NCC(=O)O)[C@@H](C)O`, greater than 1 µM; that for `CC(=O)N[C@@H](CS)C(=O)N[C@@H](CCC(N)=O)C(=O)N[C@H](C(=O)N[C@@H](Cc1c[nH]c2ccccc12)C(=O)N[C@@H](CCC(N)=O)C(=O)N[C@@H](CS)C(=O)N[C@@H](Cc1ccc(O)cc1)C(=O)N[C@@H](Cc1c[nH]c2ccccc12)C(=O)N[C@@H](CCCNC(=N)N)C(=O)N(C)CC(=O)N[C@@H](CC(N)=O)C(=O)NCC(=O)NCCOCC(=O)N[C@H](CCCCN)C(N)=O)[C@@H](C)O`, greater than 1 µM.
For the compound `CC(C)[C@H](NC(=O)[C@H](Cc1c[nH]c2ccccc12)NC(=O)[C@H](CC(=O)O)NC(=O)[C@H](C)NC(=O)[C@@H](N)CS)C(=O)N[C@@H](CS)C(=O)N[C@@H](Cc1ccc(O)cc1)C(=O)N[C@@H](Cc1cccc2ccccc12)C(=O)N[C@@H](Cc1cnc[nH]1)C(=O)N[C@H](C(=O)N[C@@H](Cc1ccccc1)C(=O)NCC(N)=O)[C@@H](C)O`, the IC50 fell in the range of 0.5 to 1 µM.
Compound `CCC(CC)(NC(=O)[C@H](CCCN)NC(=O)[C@H](Cc1c[nH]c2ccccc12)NC(=O)[C@H](Cc1ccc(O)cc1)NC(=O)[C@H](CS)NC(=O)[C@@H](NC(=O)[C@H](Cc1c[nH]c2ccccc12)NC(=O)[C@H](CC(=O)O)NC(=O)[C@H](C)NC(=O)[C@H](CS)NC(C)=O)C(C)C)C(=O)N[C@@H](Cc1ccccc1)C(=O)NCC(=O)NCCOCC(=O)N[C@H](CCCCN)C(N)=O` gave an IC50 of 6 µM.
`C[C@H](N)C(=O)N[C@@H](CS)C(=O)N[C@@H](CC(=O)O)C(=O)N[C@@H](Cc1c[nH]c2ccccc12)C(=O)N[C@@H](CS)C(=O)N[C@@H](CS)C(=O)N[C@@H](Cc1ccc(O)cc1)C(=O)N[C@@H](Cc1c[nH]c2ccccc12)C(=O)N[C@@H](CS)C(=O)N[C@H](C(=O)N[C@@H](Cc1ccccc1)C(=O)NCC(N)=O)[C@@H](C)O` (H-ACDWCCYWCTFG-NH2) returned a 50% inhibitory concentration (IC50) greater than 1 µM.
`CC(=O)N[C@@H](CS)C(=O)N[C@@H](C)C(=O)N[C@@H](CC(=O)O)C(=O)N[C@@H](Cc1c[nH]c2ccccc12)C(=O)N[C@H](C(=O)N[C@@H](CS)C(N)=O)C(C)C` (Ac-CADWVC-NH2) displayed a half-maximal inhibitory concentration (IC50) greater than 1 µM.
In the case of `CC(=O)N[C@@H](CS)C(=O)N[C@H](C(=O)N[C@H](C(=O)N[C@@H](Cc1c[nH]c2ccccc12)C(=O)N[C@@H](CCC(=O)O)C(=O)N[C@@H](CS)C(=O)N[C@@H](Cc1ccc(O)cc1)C(=O)N[C@@H](Cc1c[nH]c2ccccc12)C(=O)N[C@@H](Cc1cnc[nH]1)C(=O)N[C@@H](CCC(N)=O)C(=O)N[C@@H](Cc1ccccc1)C(=O)NCC(N)=O)[C@@H](C)O)[C@@H](C)O` (Ac-CTTWECYWHQFG-NH2), the 50% inhibitory concentration (IC50) is less than 0.5 µM.
Take `CC(C)[C@H](NC(=O)C[C@H](Cc1c[nH]c2ccccc12)NC(=O)[C@H](CC(=O)O)NC(=O)[C@H](C)NC(=O)[C@@H](N)CS)C(=O)N[C@@H](CS)C(=O)N[C@@H](Cc1ccc(O)cc1)C(=O)N[C@@H](Cc1c[nH]c2ccccc12)C(=O)N[C@@H](Cc1cnc[nH]1)C(=O)N[C@H](C(=O)N[C@@H](Cc1ccccc1)C(=O)NCC(N)=O)[C@@H](C)O`: the IC50 is greater than 1 µM.
`CC(=O)N[C@@H](CS)C(=O)N[C@@H](C)C(=O)N[C@@H](CC(=O)O)C(=O)N[C@@H](Cc1c[nH]c2ccccc12)C(=O)N[C@H](C(=O)N[C@@H](CS)C(=O)N[C@@H](Cc1ccc(O)cc1)C(=O)N[C@@H](Cc1c[nH]c2ccccc12)C(=O)N[C@@H](Cc1cnc[nH]1)C(=O)N[C@H](C(=O)N[C@@H](Cc1ccccc1)C(=O)NCC(=O)N[C@@H](C)C(=O)N[C@H](CCCCN)C(=O)O)[C@@H](C)O)C(C)C` gave an IC50 of less than 0.5 µM.
Compound `CC(=O)N[C@@H](CS)C(=O)N[C@@H](CCC(N)=O)C(=O)N[C@H](C(=O)N[C@@H](Cc1c[nH]c2ccccc12)C(=O)N[C@@H](CCC(N)=O)C(=O)N[C@@H](CS)C(=O)N[C@@](C)(Cc1ccccc1)C(=O)N[C@@H](Cc1c[nH]c2ccccc12)C(=O)N[C@@H](CCC(C)C)C(=O)N[C@@H](CCC(=O)O)C(=O)N[C@@H](CC(N)=O)C(=O)NCC(N)=O)[C@@H](C)O` returned a half-maximal inhibitory concentration (IC50) of 30 µM.
For `CC(=O)N[C@@H](CS)C(=O)N[C@@H](C)C(=O)N[C@@H](CC(=O)O)C(=O)N[C@@H](Cc1c[nH]c2ccccc12)C(=O)N[C@H](C(=O)N[C@@H](CS)C(=O)N[C@@H](Cc1ccc(O)cc1)C(=O)N[C@@H](Cc1c[nH]c2ccccc12)C(=O)N[C@@H](Cc1cnc[nH]1)C(=O)N[C@H](C(=O)N[C@@H](Cc1ccccc1)C(=O)N[C@H](CCCCN)C(=O)O)[C@@H](C)O)C(C)C`, the IC50 was greater than 1 µM.
